According to ChEMBL document CHEMBL1129600, “Identification of retinoic acid receptor beta subtype specific agonists” (J Med Chem, 1996):

Tests used:
[1] = target: T1, Retinoic acid receptor beta (Homo sapiens, UniProt P10826); assay: Transcriptional activation in CV-1 cells expressing Retinoic acid receptor RAR beta; format: cell-based
T1 sequence (P10826 whole entry): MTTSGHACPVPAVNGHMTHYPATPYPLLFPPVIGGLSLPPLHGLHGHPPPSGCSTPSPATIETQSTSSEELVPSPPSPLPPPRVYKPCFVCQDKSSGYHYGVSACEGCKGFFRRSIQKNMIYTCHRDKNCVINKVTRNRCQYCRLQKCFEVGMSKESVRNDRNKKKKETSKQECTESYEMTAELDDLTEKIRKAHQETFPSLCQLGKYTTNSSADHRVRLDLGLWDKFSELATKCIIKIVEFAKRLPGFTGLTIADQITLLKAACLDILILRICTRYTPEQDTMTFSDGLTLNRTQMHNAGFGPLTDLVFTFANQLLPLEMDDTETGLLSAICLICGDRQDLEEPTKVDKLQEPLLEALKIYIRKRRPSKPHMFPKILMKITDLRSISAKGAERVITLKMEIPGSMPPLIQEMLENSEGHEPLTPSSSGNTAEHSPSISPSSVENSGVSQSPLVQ

[2] = target: T2, Retinoic acid receptor gamma (Homo sapiens, UniProt P13631); assay: Inhibition of [3H]ATRA binding to baculovirus expressed Retinoic acid receptor RAR gamma
T2 sequence (P13631 whole entry): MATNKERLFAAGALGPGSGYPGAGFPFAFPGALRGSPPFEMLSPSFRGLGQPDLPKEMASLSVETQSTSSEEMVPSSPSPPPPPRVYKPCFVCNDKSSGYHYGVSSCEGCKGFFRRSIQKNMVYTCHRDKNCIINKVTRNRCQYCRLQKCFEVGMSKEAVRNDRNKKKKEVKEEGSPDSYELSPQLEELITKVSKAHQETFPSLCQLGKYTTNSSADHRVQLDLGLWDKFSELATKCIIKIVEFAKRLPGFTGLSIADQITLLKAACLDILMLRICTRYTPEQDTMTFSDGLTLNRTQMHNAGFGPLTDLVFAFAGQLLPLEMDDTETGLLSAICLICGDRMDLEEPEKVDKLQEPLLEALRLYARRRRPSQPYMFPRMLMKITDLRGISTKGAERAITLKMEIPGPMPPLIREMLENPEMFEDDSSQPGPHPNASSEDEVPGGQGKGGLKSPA

[3] = target: T3, Retinoic acid receptor alpha (Homo sapiens, UniProt P10276); assay: Inhibition of [3H]ATRA binding to baculovirus expressed Retinoic acid receptor RAR alpha
T3 sequence (P10276 whole entry): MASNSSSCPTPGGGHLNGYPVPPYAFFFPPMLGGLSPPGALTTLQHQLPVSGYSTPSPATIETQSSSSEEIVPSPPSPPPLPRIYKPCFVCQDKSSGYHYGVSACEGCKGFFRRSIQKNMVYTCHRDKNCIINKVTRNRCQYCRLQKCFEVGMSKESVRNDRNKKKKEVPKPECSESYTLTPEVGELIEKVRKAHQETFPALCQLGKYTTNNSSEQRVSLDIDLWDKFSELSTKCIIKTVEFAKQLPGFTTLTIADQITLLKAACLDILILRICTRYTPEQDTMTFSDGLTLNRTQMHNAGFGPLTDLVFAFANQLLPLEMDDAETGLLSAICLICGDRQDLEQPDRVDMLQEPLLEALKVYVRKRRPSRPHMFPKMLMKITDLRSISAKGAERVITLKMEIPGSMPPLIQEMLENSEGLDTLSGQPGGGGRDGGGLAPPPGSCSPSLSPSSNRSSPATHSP

[4] = target: T4, Retinoic acid receptor beta (Homo sapiens) (UniProt P10826); assay: Relative efficacy for Retinoic acid receptor beta compared to maximal retinoic acid response
T4 sequence (whole entry): T1 sequence (P10826 whole entry)

[5] = target: T1, Retinoic acid receptor beta; assay: Inhibition of [3H]ATRA binding to baculovirus expressed Retinoic acid receptor RAR beta

| Structure (SMILES) | EC50 [1] | Kd [2] | Kd [3] | Eff [4] | Kd [5] |
| --- | --- | --- | --- | --- | --- |
| CC1(C)CC=C(c2cccs2)c2cc(C#Cc3ccc(C(=O)O)cc3)ccc21 | 25 nM | 104 nM | 129 nM | 32% | 20 nM |
| CC1(C)CC=C(c2cccs2)c2cc(C(=O)Nc3ccc(C(=O)O)cc3)ccc21 | 115 nM | > 10000 nM | 94 nM | 61% | 996 nM |
| CC1(C)CC=C(c2cccs2)c2cc(C(=O)Oc3ccc(C(=O)O)cc3)ccc21 | 26 nM | 1490 nM | 303 nM | 47% | 189 nM |
